Measurements published in patent US20060199870A1, “Method for producing aqueous ortho-phthalaldehyde solutions” (DSM Fine Chemicals Austria Nfg GmbH & Co KG, priority 2005, published 2006).

Assay: Solubility / attainable concentration of OPA in aqueous solution
Format: physicochemical
Excerpt: According to the invention, sufficient acetal is introduced into water and dissolved, so that after acidifying, a 0.025 to 9% strength by weight aqueous OPA solution is obtained. Preference is given to 0.05 to 5% strength by weight solutions, particularly preferably 0.5 to 2% strength by weight solutions.
It is advantageous in the inventive method that, compared with the use of OPA itself, more highly concentrated solutions (9% compared with 5%) can be produced, since the alcohol eliminated by the acidification favors the dissolution of the OPA formed.
In addition, if desired, the alcohol being eliminated can be removed from the solution by distilling it off, as a result of which, however, the solubility is reduced again to 5%.

solubility (aqueous solution after the eliminated alcohol is distilled off): 5%
attainable concentration of aqueous OPA solution (solution produced from OPA acetal, alcohol eliminated by the acidification remains in solution): 9%
attainable concentration of aqueous OPA solution (use of OPA itself dissolved in water): 5%
Structure (SMILES): O=Cc1ccccc1C=O [OPA, ortho-phthalaldehyde]
